In publication PMC4503722, “Novel Phenotypic Outcomes Identified for a Public Collection of Approved Drugs from a Publicly Accessible Panel of Assays” (PLoS ONE, 2015):
Read-outs that look alike come from different tables or passages of the source.

How the values were obtained:
[1] = tested on: endothelial tube formation in co-cultures of ECFCs and ADSCs treated with VEGF; test: cells; format: cell-based, human
SW480 = test: cells; format: cell-based
RKO = test: cells; format: cell-based
Colo320 = test: cells; format: cell-based
HT-29 = test: cells; format: cell-based
DLD-1 = test: cells; format: cell-based
HCT116 = test: cells; format: cell-based
[2] = tested on: ECFC/ADSC co-culture cell nuclei number
[3] = tested on: HCT116 cells treated with a GSK3β inhibitor; test: cells; format: cell-based; conditions: for IC50/EC50, GSK3b inh pretreated_Viability ATP HCT116 (assay number 26): GSK3b inh pretreated
SNU-C1 = test: cells; format: cell-based
[4] = assay number 26, GSK3b inhibitor pretreated

Compound	VEGF_ADSC\ECFC Angio CD31 TubeArea IC50/EC50 [1]	Basal_Viability ATP SW480 IC50/EC50 (SW480; assay number 24, basal)	Basal_Viability ATP RKO IC50/EC50 (RKO; assay number 29, basal)	Basal_Viability ATP Colo 320 IC50/EC50 (Colo320; assay number 27, basal)	Basal_Viability ATP HT-29 IC50/EC50 (HT-29; assay number 28, basal)	Basal_Viability ATP DLD-1 IC50/EC50 (DLD-1; assay number 23, basal)	Basal_Viability ATP HCT116 IC50/EC50 (HCT116; assay number 25, basal)	VEGF_ADSC\ECFC Angio Hoechst NucArea IC50/EC50 [2]	GSK3b inh pretreated_Viability ATP HCT116 IC50/EC50 [3, 4]	Basal_Viability ATP SNU-C1 IC50/EC50 (SNU-C1; assay number 30, basal)	IC50/EC50, VEGF_ADSC\ECFC Angio CD31 TubeArea (assay number 2) [1]	IC50/EC50, Basal_Viability ATP SW480 (assay number 24) (SW480; basal)	IC50/EC50, Basal_Viability ATP RKO (assay number 29) (RKO; basal)	IC50/EC50, Basal_Viability ATP Colo 320 (assay number 27) (Colo320; basal)	IC50/EC50, Basal_Viability ATP HT-29 (assay number 28) (HT-29; basal)	IC50/EC50, Basal_Viability ATP DLD-1 (assay number 23) (DLD-1; basal)	IC50/EC50, Basal_Viability ATP HCT116 (assay number 25) (HCT116; basal)	IC50/EC50, VEGF_ADSC\ECFC Angio Hoechst NucArea (assay number 3) [2]	IC50/EC50, GSK3b inh pretreated_Viability ATP HCT116 (assay number 26) [3]	IC50/EC50, Basal_Viability ATP SNU-C1 (assay number 30) (SNU-C1; basal)	other results
CCOC(=O)[C@H](CCc1ccccc1)N[C@@H](C)C(=O)N1C(=O)N(C)C[C@H]1C(=O)O.Cl [NCGC00181342-02]	> 10 µM	> 20 µM	> 20 µM	> 20 µM	> 20 µM	> 20 µM	> 20 µM	> 10 µM	> 20 µM	> 20 µM	–	–	–	–	–	–	–	–	–	–	–
Cc1cc2nc3ccc(=[N+](C)C)cc-3sc2cc1N.[Cl-] [NCGC00181775-02]	2.45 µM	–	–	–	–	–	–	8.146 µM	–	–	–	–	–	–	–	–	–	–	–	–	Basal_Viability ATP SW480 IC50/EC50 (SW480): 1.397 µM; Basal_Viability ATP RKO IC50/EC50 (RKO): 0.9955 µM; Basal_Viability ATP Colo 320 IC50/EC50 (Colo320): 0.9874 µM; Basal_Viability ATP HT-29 IC50/EC50 (HT-29): 5.063 µM; Basal_Viability ATP DLD-1 IC50/EC50 (DLD-1): 9.38 µM; Basal_Viability ATP HCT116 IC50/EC50 (HCT116): 2.782 µM; GSK3b inh pretreated_Viability ATP HCT116 IC50/EC50 [3]: 1.693 µM; Basal_Viability ATP SNU-C1 IC50/EC50 (SNU-C1): 5.5567 µM
O=C1NCCN1CCN1CCC(c2cn(-c3ccc(F)cc3)c3ccc(Cl)cc23)CC1 [NCGC00181782-03]	–	–	–	–	–	–	–	–	–	–	> 10 µM	2.8086 µM	2.6022 µM	3.6991 µM	2.8613 µM	5.6233 µM	2.1598 µM	> 10 µM	3.5177 µM	1.4252 µM	–
CNS(=O)(=O)CCc1ccc2[nH]cc(C3CCN(C)CC3)c2c1.Cl [NCGC00181786-02]	–	–	–	–	–	–	–	–	–	–	> 10 µM	> 20 µM	> 20 µM	> 20 µM	> 20 µM	> 20 µM	> 20 µM	> 10 µM	12.1308 µM	> 20 µM	–
CCCCCCCC[N+](C)(C)CCCCCCCC [NCGC00182056-04]	1.3911 µM	3.4577 µM	2.183 µM	4.6621 µM	3.9986 µM	3.2197 µM	6.2411 µM	7.431 µM	3.6902 µM	1.4417 µM	–	–	–	–	–	–	–	–	–	–	–
Cc1c(O)cc2c(c1C)O[C@](C)(CCC[C@H](C)CCC[C@H](C)CCCC(C)C)CC2 [NCGC00185764-03]	> 10 µM	> 20 µM	> 20 µM	> 20 µM	> 20 µM	> 20 µM	> 20 µM	> 10 µM	> 20 µM	> 20 µM	–	–	–	–	–	–	–	–	–	–	–
